Laboratory results taken from patent US11578055B2, “Triazacyclododecansulfonamide (“TCD”)-based protein secretion inhibitors” (KEZAR LIFE SCIENCES, priority 2018, dated 2023).
Read-outs that look alike come from different tables or passages of the source.

Tests used:
[1] = test system: PD1 signal sequence plus 10 amino acids fused to Gaussia Luciferase (PD1-ss+10aa/Gaussia Luciferase); assay: Dox Induced PD1-ss-Gluc Assay; type: cell-based; settings: 24 hr, read-out: 24 hr Dox Inducible PD1ssGluc 293FRT/TO: Mean IC50
Procedure, shortened: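 Stable Flp-In 293 T-REx line expressing the fusion under tetracycline-inducible control, plated the day before assay. Compound dilutions added with doxycycline and incubated at 37 °C, 5% CO2; unspecified stereocentres mean data refer to stereoisomer mixtures.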

[2] = test system: full length TNFα (amino acids 1-233) fused to Gaussia Luciferase; assay: Dox Induced TNFα-FL-Gluc Assay; type: cell-based; settings: 24 hr, read-out: 24 hr Dox Inducible TNFaFLGluc 293FRT/TO: Mean IC50
Procedure, shortened: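 Stable Flp-In 293 T-REx line expressing doxycycline-inducible full-length TNFα fused to Gaussia luciferase; cells plated the day before, then treated with compound dilutions in doxycycline-containing medium at 37° C, 5% CO2. Unspecified stereocentres mean stereoisomer mixtures were tested.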

[3] = test system: multiple myeloma cell line NCl-H929; assay: H929 Cell Viability Assay; type: cell-based, human; settings: Homo sapiens, NCI-H929, 48 h
Procedure, shortened: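 NCI-H929 myeloma cells in RPMI 1640 with 10% FBS were treated with compound dilutions for 48 h at 37 °C, and viability was then read by CellTiter-Glo luminescence. Compounds drawn without stereochemistry were tested as stereoisomer mixtures.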

[4] = test system: multiple myeloma cell line U266B1; assay: U266 Cell Viability Assay; type: cell-based, human; settings: Homo sapiens, U-266, 48 hr
Procedure, shortened: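 U266B1 myeloma cells in RPMI 1640 with 10% FBS were treated with compound dilutions for 48 h at 37° C, 5% CO2. Viability was read as CellTiter-Glo luminescence. Data for structures drawn without stereochemistry refer to stereoisomer mixtures.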

[5] = In Vitro Microsome Stability Assay (human); type: in vitro ADME
Procedure, shortened: (§1)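 Species liver microsomes in potassium phosphate buffer were preincubated at 37 °C for 3–5 min with test compound (added from 0.25 mM DMSO stock), then started with NADPH. Samples at 0 and 30 min were quenched with acetonitrile containing internal standard and analysed by LC-MS/MS; % remaining at 30 min used analyte/IS AUC ratios relative to t=0.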

[6] = In Vitro Microsome Stability Assay (mouse); type: in vitro ADME
Procedure, shortened: as §1

[7] = In Vitro Microsome Stability Assay (rat); type: in vitro ADME
Procedure, shortened: as §1

[8] = In Vitro Microsome Stability Assay (monkey); type: in vitro ADME
Procedure, shortened: as §1

[9] = H929, read-out: 48 hr H929 Viability Celltiter-Glo: Mean EC50
[10] = U266, read-out: 48 hr U266 Viability Celltiter-Glo: Mean EC50
[11] = human liver microsomes, 30 min w/ NADPH
[12] = mouse liver microsomes, 30 min w/ NADPH
[13] = rat liver microsomes, 30 min w/ NADPH
[14] = monkey liver microsomes, 30 min w/ NADPH

Compound	IC50 ([1]; 293FRT/TO)	IC50 ([2]; 293FRT/TO)	EC50 [3, 9]	EC50 [4, 10]	Liver Microsome Stability-% Left after 30 min w/ NADPH (%) Human ([5]; human, 30 min, NADPH)	Liver Microsome Stability-% Left after 30 min w/ NADPH (%) Mouse ([6]; mouse, 30 min, NADPH)	Liver Microsome Stability-% Left after 30 min w/ NADPH (%) Rat ([7]; rat, 30 min, NADPH)	Liver Microsome Stability-% Left after 30 min w/ NADPH (%) Monkey ([8]; monkey, 30 min, NADPH)	IC50 ([1]; Dox inducible, 293FRT/TO cells)	IC50 ([2]; Dox inducible, 293FRT/TO cells)	EC50 ([3]; H929, Celltiter-Glo)	EC50 ([4]; U266, Celltiter-Glo)	Liver Microsome Stability-% Left after 30 min w/ NADPH (%) Human [5, 11]	Liver Microsome Stability-% Left after 30 min w/ NADPH (%) Mouse [6, 12]	Liver Microsome Stability-% Left after 30 min w/ NADPH (%) Rat [7, 13]	Liver Microsome Stability-% Left after 30 min w/ NADPH (%) Monkey [8, 14]
C=C1CN(S(=O)(=O)c2ccc(N(C)C)cc2F)CCCN(CC2CCCCC2)CCCN(S(=O)(=O)N2CCc3cc(Cl)ccc3C2)C1 [A56, 4-({5-[(6-chloro-1,2,3,4-tetrahydroisoquinolin-2-yl)sulfonyl]-9-(cyclohexylmethyl)-3-methylidene-1,5,9-triazacyclododecan-1-yl}sulfonyl)-3-fluoro-N,N-dimethylaniline]	0.0328 µM	1.26 µM	1.63 µM	> 25 µM	44.5%	53.2%	57.3%	42.6%								
C=C1CN(S(=O)(=O)c2ccc(N(C)C)cc2)CCCN(CC2CCCCC2)CCCN(S(=O)(=O)N2CCN(c3ccc(Cl)cc3)CC2)C1 [A85, 4-[(5-{[4-(4-chlorophenyl)piperazin-1-yl]sulfonyl}-9-(cyclohexylmethyl)-3-methylidene-1,5,9-triazacyclododecan-1-yl)sulfonyl]-N,N-dimethylaniline]	0.0875 µM	> 25 µM	> 25 µM	> 25 µM	25.6%	52.2%	64.9%	42.9%								
C=C1CN(S(=O)(=O)c2ccc(N(C)C)cc2)CCCN(CC2CCCCC2)CCCN(S(=O)(=O)N2CCC(C#N)CC2)C1 [A39, 1-{[9-(cyclohexylmethyl)-5-[4-(dimethylamino)benzenesulfonyl]-3-methylidene-1,5,9-triazacyclododecan-1-yl]sulfonyl}piperidine-4-carbonitrile]	0.761 µM	> 25 µM	> 25 µM	10.4 µM	0.05%	0.26%	6%	0.11%								
CN(C)c1ccc(S(=O)(=O)N2CCCN(CC3CCCCC3)CCCN(S(=O)(=O)N3CCCCCC3)CC3(CC3)C2)cc1 [A25, 4-{[13-(azepane-1-sulfonyl)-9-(cyclohexylmethyl)-5,9,13-triazaspiro[2.11]tetradecan-5-yl]sulfonyl}-N,N-dimethylaniline]	0.435 µM	> 25 µM	> 25 µM	> 25 µM	0.12%	0.32%	4.16%	0.2%								
C=C1CN(S(=O)(=O)c2ccc(N(C)C)cc2)CCCN(CC2CCCCC2)CCCN(S(=O)(=O)N2CCN(c3cccc(Cl)c3)CC2)C1 [A84, 4-[(5-{[4-(3-chlorophenyl)piperazin-1-yl]sulfonyl}-9-(cyclohexylmethyl)-3-methylidene-1,5,9-triazacyclododecan-1-yl)sulfonyl]-N,N-dimethylaniline]	0.176 µM	> 25 µM	> 25 µM	> 25 µM	60.6%	68.3%	67.3%	65.8%								
CN(C)c1ccc(S(=O)(=O)N2CCCN(CC3CCCCC3)CCCN(S(=O)(=O)N3CCC(c4ccccc4)CC3)CC(O)C2)cc1 (centres unmarked) [A55, 9-(cyclohexylmethyl)-1-[4-(dimethylamino)benzenesulfonyl]-5-[(4-phenylpiperidin-1-yl)sulfonyl]-1,5,9-triazacyclododecan-3-ol]	1.54 µM	> 25 µM	> 25 µM	> 25 µM	4.87%	1.18%	0.97%	0.34%								
CN(C)c1ccc(S(=O)(=O)N2C/C=C\CN(S(=O)(=O)N3CCC(c4ccccc4)CC3)CCCN(CC3CCCCC3)CCC2)cc1 [B8, 4-{[(11Z)-5-(cyclohexylmethyl)-9-[(4-phenylpiperidin-1-yl)sulfonyl]-1,5,9-triazacyclotridec-11-en-1-yl]sulfonyl}-N,N-dimethylaniline]									> 25 µM	> 25 µM	> 25 µM	> 25 µM	22.1%	17.1%	23.8%	15.5%
C=C1CN(S(=O)(=O)c2ccc(N(C)C)cc2)CCCN(CC2CCCCC2)CCCN(S(=O)(=O)N2CC=C(C3=CCCCC3)CC2)C1 [A68, 4-[(5-{[4-(cyclohex-1-en-1-yl)-1,2,3,6-tetrahydropyridin-1-yl]sulfonyl}-9-(cyclohexylmethyl)-3-methylidene-1,5,9-triazacyclododecan-1-yl)sulfonyl}-N,N-dimethylaniline]	0.156 µM	6.44 µM	> 25 µM	> 25 µM	50.5%	55.1%	57.1%	57.1%								
CN(C)c1ccc(S(=O)(=O)N2CCCCN(S(=O)(=O)N3CCC(c4ccccc4)CC3)CCCN(CC3CCCCC3)CCC2)cc1 [B5]									1.5 µM	> 25 µM	> 25 µM	> 25 µM	0.54%	0.24%	7.08%	0.21%
C=C1CN(S(=O)(=O)c2ccc(N(C)C)cc2)CCCN(CC2CCCCC2)CCCN(S(=O)(=O)N2CCC(C3CCCCC3)CC2)C1 [A65, 4-{[9-(cyclohexylmethyl)-5-[(4-cyclohexylpiperidin-1-yl)sulfonyl}-3-methylidene-1,5,9-triazacyclododecan-1-yl]sulfonyl}-N,N-dimethylaniline]	0.154 µM	8.72 µM	> 25 µM	> 25 µM	53.1%	73.4%	78%	57.8%								
